Results from ChEMBL document CHEMBL2434921, “New synthetic aliphatic sulfonamido-quaternary ammonium salts as anticancer chemotherapeutic agents” (2013).
Calls of active or inactive are those of the source. The rule behind the calls is not given here.

Assays:
NCI-H23 [1] = test: Growth inhibition of human NCI-H23 cells after 48 hrs by SRB assay; assay type: functional; settings: NCI-H23, 48 h
HCT-15 [2] = test: Growth inhibition of human HCT15 cells after 48 hrs by SRB assay; assay type: functional; settings: HCT-15, 48 h
[3] = biological target: Rho-related GTP-binding protein RhoB (Homo sapiens) (UniProt P62745); test: Transactivation of RhoB (unknown origin) transfected in human HeLa cells at 5 uM measured over 10 secs by dual luciferase reporter gene assay; assay type: cell-based
NUGC-3 [4] = test: Growth inhibition of human NUGC3 cells after 48 hrs by SRB assay; assay type: functional; settings: NUGC-3, 48 h
ACHN [5] = test: Growth inhibition of human ACHN cells after 48 hrs by SRB assay; assay type: functional
MDA-MB-231 [6] = test: Growth inhibition of human MDA-MB-231 cells after 48 hrs by SRB assay; assay type: functional; settings: MDA-MB-231, 48 h
PC-3 [7] = test: Growth inhibition of human PC3 cells after 48 hrs by SRB assay; assay type: functional; settings: PC-3, 48 h
PC-3 [8] = test: Growth of human PC3 cells at 10 uM after 48 hrs by SRB assay; settings: PC-3, 48 h
NUGC-3 [9] = test: Growth of human NUGC3 cells at 1 uM after 48 hrs by SRB assay; settings: NUGC-3, 48 h
ACHN [10] = test: Growth of human ACHN cells at 10 uM after 48 hrs by SRB assay
HCT-15 [11] = test: Growth of human HCT15 cells at 3 uM after 48 hrs by SRB assay; settings: HCT-15, 48 h
ACHN [12] = test: Growth of human ACHN cells at 0.1 uM after 48 hrs by SRB assay
ACHN [13] = test: Growth of human ACHN cells at 0.3 uM after 48 hrs by SRB assay
NUGC-3 [14] = test: Growth of human NUGC3 cells at 0.1 uM after 48 hrs by SRB assay; settings: NUGC-3, 48 h
NUGC-3 [15] = test: Growth of human NUGC3 cells at 0.3 uM after 48 hrs by SRB assay; settings: NUGC-3, 48 h
HCT-15 [16] = test: Growth of human HCT15 cells at 0.3 uM after 48 hrs by SRB assay; settings: HCT-15, 48 h
NCI-H23 [17] = test: Growth of human NCI-H23 cells at 10 uM after 48 hrs by SRB assay; settings: NCI-H23, 48 h
NCI-H23 [18] = test: Growth of human NCI-H23 cells at 0.3 uM after 48 hrs by SRB assay; settings: NCI-H23, 48 h
MDA-MB-231 [19] = test: Growth of human MDA-MB-231 cells at 1 uM after 48 hrs by SRB assay; settings: MDA-MB-231, 48 h
MDA-MB-231 [20] = test: Growth of human MDA-MB-231 cells at 10 uM after 48 hrs by SRB assay; settings: MDA-MB-231, 48 h
MDA-MB-231 [21] = test: Growth of human MDA-MB-231 cells at 0.1 uM after 48 hrs by SRB assay; settings: MDA-MB-231, 48 h
MDA-MB-231 [22] = test: Growth of human MDA-MB-231 cells at 3 uM after 48 hrs by SRB assay; values are per cent of control; settings: MDA-MB-231, 48 h
PC-3 [23] = test: Growth inhibition of human PC3 cells at 1 uM after 48 hrs by SRB assay; values are per cent of control; settings: PC-3, 48 h
PC-3 [24] = test: Growth inhibition of human PC3 cells at 3 uM after 48 hrs by SRB assay; values are per cent of control; settings: PC-3, 48 h
ACHN [25] = test: Growth inhibition of human ACHN cells at 3 uM after 48 hrs by SRB assay; values are per cent of control
ACHN [26] = test: Growth inhibition of human ACHN cells at 1 uM after 48 hrs by SRB assay; values are per cent of control
NUGC-3 [27] = test: Growth inhibition of human NUGC3 cells at 3 uM after 48 hrs by SRB assay; values are per cent of control; settings: NUGC-3, 48 h
PC-3 [28] = test: Growth inhibition of human PC3 cells at 0.1 uM after 48 hrs by SRB assay; values are per cent of control; settings: PC-3, 48 h
PC-3 [29] = test: Growth inhibition of human PC3 cells at 0.3 uM after 48 hrs by SRB assay; values are per cent of control; settings: PC-3, 48 h
HCT-15 [30] = test: Growth inhibition of human HCT15 cells at 1 uM after 48 hrs by SRB assay; values are per cent of control; settings: HCT-15, 48 h
NUGC-3 [31] = test: Growth inhibition of human NUGC3 cells at 10 uM after 48 hrs by SRB assay; values are per cent of control; settings: NUGC-3, 48 h
HCT-15 [32] = test: Growth inhibition of human HCT15 cells at 10 uM after 48 hrs by SRB assay; values are per cent of control; settings: HCT-15, 48 h
NCI-H23 [33] = test: Growth inhibition of human NCI-H23 cells at 1 uM after 48 hrs by SRB assay; values are per cent of control; settings: NCI-H23, 48 h
NCI-H23 [34] = test: Growth inhibition of human NCI-H23 cells at 3 uM after 48 hrs by SRB assay; values are per cent of control; settings: NCI-H23, 48 h
HCT-15 [35] = test: Growth inhibition of human HCT15 cells at 0.1 uM after 48 hrs by SRB assay; values are per cent of control; settings: HCT-15, 48 h
NCI-H23 [36] = test: Growth inhibition of human NCI-H23 cells at 0.1 uM after 48 hrs by SRB assay; values are per cent of control; settings: NCI-H23, 48 h
MDA-MB-231 [37] = test: Growth inhibition of human MDA-MB-231 cells at 0.3 uM after 48 hrs by SRB assay; values are per cent of control; settings: MDA-MB-231, 48 h

Chain of Rho-related GTP-binding protein RhoB (Homo sapiens) (P62745 whole entry): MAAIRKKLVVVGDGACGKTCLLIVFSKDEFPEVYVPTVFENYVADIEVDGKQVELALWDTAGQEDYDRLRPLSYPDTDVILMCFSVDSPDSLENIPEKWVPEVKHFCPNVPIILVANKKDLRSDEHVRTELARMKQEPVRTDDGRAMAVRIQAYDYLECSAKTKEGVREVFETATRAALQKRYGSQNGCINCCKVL

With `CCCCCCCCCCCCCCS(=O)(=O)N(C)CC[N+](C)(C)C` the GI50 (NCI-H23 [1]) was 2040 nM, the GI50 (HCT-15 [2]) was 750 nM and the Activity [3] was “Active”. It also gave a GI50 (NUGC-3 [4]) of 390 nM, a GI50 (ACHN [5]) of 1400 nM and a GI50 (MDA-MB-231 [6]) of 920 nM. It also gave a GI50 (PC-3 [7]) of 470 nM, a growth, % of control at 10 µM (PC-3 [8]) of -14.3% and a growth, % of control at 1 µM (NUGC-3 [9]) of 34.4%. The growth, % of control at 10 µM (ACHN [10]) was 21.3%, the growth, % of control at 3 µM (HCT-15 [11]) was 26.9% and the growth, % of control at 0.1 µM (ACHN [12]) was 107%. The growth, % of control at 0.3 µM (ACHN [13]) was 100%, the growth, % of control at 0.1 µM (NUGC-3 [14]) was 92.4% and the growth, % of control at 0.3 µM (NUGC-3 [15]) was 84.5%. The growth, % of control at 0.3 µM (HCT-15 [16]) was 97.5%, the growth, % of control at 10 µM (NCI-H23 [17]) was 23.7% and the growth, % of control at 0.3 µM (NCI-H23 [18]) was 100%. The growth, % of control at 1 µM (MDA-MB-231 [19]) was 66.3%, the growth, % of control at 10 µM (MDA-MB-231 [20]) was 7.8% and the growth, % of control at 0.1 µM (MDA-MB-231 [21]) was 99.1%. It also gave a growth, % of control at 3 µM (MDA-MB-231 [22]) of 35.3%, a growth, % of control at 1 µM (PC-3 [23]) of 45.1% and a growth, % of control at 3 µM (PC-3 [24]) of 11.4%. It also gave a growth, % of control at 3 µM (ACHN [25]) of 47.2%, a growth, % of control at 1 µM (ACHN [26]) of 71.6% and a growth, % of control at 3 µM (NUGC-3 [27]) of 18.4%. For the same compound, the growth, % of control at 0.1 µM (PC-3 [28]) was 92%, the growth, % of control at 0.3 µM (PC-3 [29]) was 93.6% and the growth, % of control at 1 µM (HCT-15 [30]) was 55.6%. It also gave a growth, % of control at 10 µM (NUGC-3 [31]) of 9%, a growth, % of control at 10 µM (HCT-15 [32]) of 20.2% and a growth, % of control at 1 µM (NCI-H23 [33]) of 86.3%. The growth, % of control at 3 µM (NCI-H23 [34]) was 59.1%, the growth, % of control at 0.1 µM (HCT-15 [35]) was 95.7% and the growth, % of control at 0.1 µM (NCI-H23 [36]) was 94.5%. For the same compound, the growth, % of control at 0.3 µM (MDA-MB-231 [37]) was 98.2%.
For `CCCCCCCCCCCCCCS(=O)(=O)N(C)CC[N+](C)(C)CC`, the GI50 (NCI-H23 [1]) was 590 nM, the GI50 (HCT-15 [2]) was 1610 nM and the Activity [3] was “Active”. It also gave a GI50 (NUGC-3 [4]) of 300 nM, a GI50 (ACHN [5]) of 1300 nM and a GI50 (MDA-MB-231 [6]) of 990 nM. The GI50 (PC-3 [7]) was 340 nM, the growth, % of control at 10 µM (PC-3 [8]) was -12.3% and the growth, % of control at 1 µM (NUGC-3 [9]) was 43.3%. For the same compound, the growth, % of control at 10 µM (ACHN [10]) was 25%, the growth, % of control at 3 µM (HCT-15 [11]) was 41.1% and the growth, % of control at 0.1 µM (ACHN [12]) was 105%. The growth, % of control at 0.3 µM (ACHN [13]) was 104%, the growth, % of control at 0.1 µM (NUGC-3 [14]) was 96.8% and the growth, % of control at 0.3 µM (NUGC-3 [15]) was 95.6%. It also gave a growth, % of control at 0.3 µM (HCT-15 [16]) of 96.8%, a growth, % of control at 10 µM (NCI-H23 [17]) of 16.3% and a growth, % of control at 0.3 µM (NCI-H23 [18]) of 94.6%. It also gave a growth, % of control at 1 µM (MDA-MB-231 [19]) of 63.1%, a growth, % of control at 10 µM (MDA-MB-231 [20]) of 18.2% and a growth, % of control at 0.1 µM (MDA-MB-231 [21]) of 99%. For the same compound, the growth, % of control at 3 µM (MDA-MB-231 [22]) was 36.4%, the growth, % of control at 1 µM (PC-3 [23]) was 57.1% and the growth, % of control at 3 µM (PC-3 [24]) was 13.3%. For the same compound, the growth, % of control at 3 µM (ACHN [25]) was 50.1%, the growth, % of control at 1 µM (ACHN [26]) was 77.1% and the growth, % of control at 3 µM (NUGC-3 [27]) was 19%. It also gave a growth, % of control at 0.1 µM (PC-3 [28]) of 96.5%, a growth, % of control at 0.3 µM (PC-3 [29]) of 95.3% and a growth, % of control at 1 µM (HCT-15 [30]) of 76.3%. For the same compound, the growth, % of control at 10 µM (NUGC-3 [31]) was 10.1%, the growth, % of control at 10 µM (HCT-15 [32]) was 21.7% and the growth, % of control at 1 µM (NCI-H23 [33]) was 86.6%. For the same compound, the growth, % of control at 3 µM (NCI-H23 [34]) was 53.6%, the growth, % of control at 0.1 µM (HCT-15 [35]) was 98.2% and the growth, % of control at 0.1 µM (NCI-H23 [36]) was 92.5%. It also gave a growth, % of control at 0.3 µM (MDA-MB-231 [37]) of 91.6%.
